The text below walks through data of US8669254B2, “Pyridine, pyridazine, pyrimidine or pyrazine carboxamides as HDL-cholesterol raising agents” (Hoffman-La Roche Inc., priority 2010, dated 2014).

Assay [1] has as its target T1, human CB2 receptor (Homo sapiens, UniProt P34972).
T1 construct: expressed in transfected cells; host or cells: human embryonic kidney (HEK) cells, Semliki Forest Virus system, membrane preparation
Kind of assay: CB2 receptor affinity ([3H]-CP-55,940 displacement). The assay is classed as binding. The following applies: HEK cell membranes, radioligand [3H]-CP-55,940. The procedure: The affinity of the compounds of the invention for cannabinoid CB2 receptors was determined using membrane preparations of human embryonic kidney (HEK) cells in which the human CB2 receptor is transiently transfected using a Semliki Forest Virus system in conjunction with [^3H]-CP-55,940 as radioligand. After incubation of freshly prepared cell membrane preparation with the [^3H]-ligand, with or without addition of compounds of the invention, separation of bound and free ligand was performed by filtration over glass fiber filters. Radioactivity on the filter was measured by scintillation counting.
(§1) The ability of the compounds to displace the radioligand [^3H]-CP-55,940 was measured at a concentration of 10 μM and values provided as [% inhibition @ 10 μM] both for the CB 1 and CB2 receptor assay, The lower % inhibition is, the lower the likelihood of side effects based on CB1 or CB2 receptor inhibition is.

Assay [2] concerns the target T2, human CB1 receptor (Homo sapiens, UniProt P21554).
T2 construct: expressed in transfected cells; host or cells: human embryonic kidney (HEK) cells, Semliki Forest Virus system, membrane preparation
Kind of assay: CB1 receptor affinity ([3H]-CP-55,940 displacement). In kind it is binding. The following applies: read-out: CB1 receptor affinity [% inhibition @ 10 μM]. Here is the method:
The affinity of the compounds of the invention for cannabinoid receptors was determined using membrane preparations of human embryonic kidney (HEK) cells in which the human CB1 receptor is transiently transfected using a Semliki Forest Virus system in conjunction with [3H]-CP-55,940 as radioligand. After incubation of freshly prepared cell membrane preparation with the [^3H]-ligand, with or without addition of compounds of the invention, separation of bound and free ligand was performed by filtration over glass fiber filters. Radioactivity on the filter was measured by scintillation counting.
as §1

In assay [3] the test system is ABCA1 protein. Kind of assay: Detection of upregulation of ABCA1 protein in cells (ApoA-I binding, high content image analysis). The assay is classed as cell-based. The following applies: THP-1 macrophage cells; for EC50: ABCA1 protein detection assay; for % increase of ABCA1 at 3 μM: compound at 3 μM, 24 hrs. Here is the method: The ability of compounds of the invention to increase the level of ABCA1 protein is determined in replicate cultures of THP-1 macrophage cells in 96-well microplates. Cells are plated at an initial density of 100,000 cells/well in 100 μl medium and differentiated to adherent macrophages with the addition of PMA (100 nM) for 68 hrs in 10% fetal bovine serum, 3 μl/L of b-mercaptoethanol, RPMI-1640 medium. Then, cells are incubated with RPMI-1640 medium containing 1% FCS, 25 μg/ml acetylated LDL, for 24 hours at 37°. Following incubation with acetylated LDL, cells are washed twice with 50 μl PBS and incubated with 100 μl of RPMI-1640 medium containing the compound of interest solubilized in DMSO for an additional 24 hrs. The final DMSO concentration in presence of cells is maintained at 0.5%. ApoA-I binding assay using High Content Image Analysis is initiated by replacing with fresh medium, RPMI without Phenol Red, 0.2% BSA containing AlexaFluor®647 labeled ApoA-I for 2 h/37° C./5% CO2. Then, cells are fixed with 4% Formaldehyde in PBS (15 min, RT). Following Nuclei are stained with Hoechst solution (3 μM PBS) and Cytoplasm with Cell Mask Blue (2 μg/ml PBS), 15 min, RT. Finally the stained cells are fixed with a second round of formaldehyde treatment. Fixed stained cells are washed and kept in PBS at 4° C. and can be read immediately until one month after preparation.
The Alexa Fluor 647-labeled Apolipoprotein A-I (20 nM) was prepared as follows: Human recombinant Apolipoprotein A-I (ApoA-I) was exchanged to a buffer of 0.02 M NaHCO3 at pH 8.2 on an NAP desalting column (GE Healthcare) and brought to a concentration to 40 μM (1.13 mg/ml) by adjustment with the same buffer. The ApoA-I was fluorescently labeled by incubation with Alexa Fluor carboxylic acid succimidyl ester (Alexa Fluor 647, Invitrogen A-20006) at a 2:1 molar ratio (Alexa to ApoA-I) for 1 h under shaking at RT). The remaining unconjugated label was removed by buffer exchange to 0.02M NaHCO3 at pH 8.2.
Imaging and data collection were performed on an OPERA confocal microplate imaging reader using a 20× water immersion objective and UV360 or 405 laser to identify the cell nuclei and a 635 laser to identify the fluorescent ApoA-I. Eight fields of view are captured per well. Image capture and analysis was performed with the Acapella software. Background fluorescence detected in control wells without ApoA-I was subtracted.
Using XLfit3 program (ID Business Solutions Ltd. UK), the model 205 for Dose Response One Site is used to calculate the EC50 values. […] Particularly, the compounds of the present invention have EC50 values in a range of 0.1 μM to 3 μM.

[4] abbreviates: 10 μM, HEK cell membranes, radioligand [3H]-CP-55,940.

Read-outs that look alike come from different tables or passages of the source.

T1 sequence (P34972 whole entry): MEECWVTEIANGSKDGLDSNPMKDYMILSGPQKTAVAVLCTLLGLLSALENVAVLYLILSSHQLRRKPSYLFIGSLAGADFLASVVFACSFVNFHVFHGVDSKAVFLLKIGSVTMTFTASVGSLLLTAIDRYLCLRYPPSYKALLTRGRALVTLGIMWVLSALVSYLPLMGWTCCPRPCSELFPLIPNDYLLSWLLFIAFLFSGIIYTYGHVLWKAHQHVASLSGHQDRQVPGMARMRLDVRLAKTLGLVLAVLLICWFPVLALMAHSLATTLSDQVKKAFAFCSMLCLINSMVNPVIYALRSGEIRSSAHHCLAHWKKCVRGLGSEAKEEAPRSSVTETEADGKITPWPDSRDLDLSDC
T2 sequence (P21554 whole entry): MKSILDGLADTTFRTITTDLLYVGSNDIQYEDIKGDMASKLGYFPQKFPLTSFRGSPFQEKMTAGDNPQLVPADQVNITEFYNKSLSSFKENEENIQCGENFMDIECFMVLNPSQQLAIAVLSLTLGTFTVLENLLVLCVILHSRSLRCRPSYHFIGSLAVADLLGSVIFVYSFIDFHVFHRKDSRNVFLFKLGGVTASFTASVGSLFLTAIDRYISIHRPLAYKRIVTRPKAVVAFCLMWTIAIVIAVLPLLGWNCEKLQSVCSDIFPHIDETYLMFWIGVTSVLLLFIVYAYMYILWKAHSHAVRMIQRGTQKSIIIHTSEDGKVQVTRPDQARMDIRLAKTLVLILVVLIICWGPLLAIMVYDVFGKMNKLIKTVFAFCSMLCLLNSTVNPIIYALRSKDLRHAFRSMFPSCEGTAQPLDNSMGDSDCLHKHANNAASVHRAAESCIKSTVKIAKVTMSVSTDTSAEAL

On to `CO/N=C1\CCCC[C@@H]1NC(=O)c1cnc(OCC2CC2)c(-c2ccc(Cl)cc2)c1` [Example 1, 5-(4-Chloro-phenyl)-6-cyclopropylmethoxy-N-{(S)-2-[(E)-methoxyimino]-cyclohexyl}-nicotinamide], for which the inhibition at 10 µM in assay [1] was 17.2%; in assay [2], 34%. The EC50 in assay [3] turned out to be 700 nM. The “% increase of ABCA1 at 3 μM” value in assay [3] amounted to 87.2% @ 3 μM.
In assay [1], `CO/N=C1\CCCC[C@@H]1NC(=O)c1cnc(OCC(F)(F)F)c(-c2ccc(Cl)cc2)c1` [Example 2, 5-(4-Chloro-phenyl)-N-{(S)-2-[(E)-methoxyimino]-cyclohexyl}-6-(2,2,2-trifluoro-ethoxy)-nicotinamide] returned an inhibition at 10 µM of 3.53%. Further, the inhibition at 10 µM in assay [2] (setting [4]) amounted to 30.8%. For the same compound, in assay [3], a half-maximal response (EC50) required 1820 nM and the “% increase of ABCA1 at 3 μM” value worked out at 88.3% @ 3 μM.
`CC(C)O/N=C1\CCCC[C@@H]1NC(=O)c1cnc(OCC2CC2)c(-c2ccc(Cl)cc2)c1` [Example 3, 5-(4-Chloro-phenyl)-6-cyclopropylmethoxy-N-{(S)-2-[(E)-isopropoxyimino]-cyclohexyl}-nicotinamide]: the inhibition at 10 µM stood at 6.86% in assay [1] and 45.7% in assay [2] (setting [4]). For the same compound, the “% increase of ABCA1 at 3 μM” value in assay [3] is 66.4% @ 3 μM.
For `O=C(N[C@H]1CCCC/C1=N\OCC(F)(F)F)c1cnc(OCC2CC2)c(-c2ccc(Cl)cc2)c1` [Example 4, 5-(4-Chloro-phenyl)-6-cyclopropylmethoxy-N-{(S)-2-[(E)-2,2,2-trifluoro-ethoxyimino]-cyclohexyl}-nicotinamide] the same measures were 8.91%, 48.5% and 90.4% @ 3 μM.
On to `NC(=O)CO/N=C1\CCCC[C@@H]1NC(=O)c1cnc(OCC2CC2)c(-c2ccc(Cl)cc2)c1` [Example 5, N-{(S)-2-[(E)-Carbamoylmethoxyimino]-cyclohexyl}-5-(4-chloro-phenyl)-6-cyclopropylmethoxy-nicotinamide], for which the inhibition at 10 µM worked out at 15.1% in assay [1] and 33.1% in assay [2] (setting [4]). In assay [3], this compound registered an EC50 of 2020 nM. Besides, the “% increase of ABCA1 at 3 μM” value in assay [3] worked out at 65.2% @ 3 μM.
For `COCO/N=C1\CCCC[C@@H]1NC(=O)c1cnc(OCC2CC2)c(-c2ccc(Cl)cc2)c1` [Example 6, 5-(4-Chloro-phenyl)-6-cyclopropylmethoxy-N-{(S)-2-[(E)-methoxymethoxyimino]-cyclohexyl}-nicotinamide], the inhibition at 10 µM was found to be 19.2% in assay [1] and 36.7% in assay [2] (setting [4]). Further, the “% increase of ABCA1 at 3 μM” value in assay [3] turned out to be 71.9% @ 3 μM.
On to `CO/N=C1\CCCC[C@@H]1NC(=O)c1cnc(OCC(F)(F)F)c(-c2ccc(Cl)c(Cl)c2)c1` [Example 7, 5-(3,4-Dichloro-phenyl)-N-{(S)-2-[(E)-methoxyimino]-cyclohexyl}-6-(2,2,2-trifluoro-ethoxy)-nicotinamide], for which the inhibition at 10 µM in assay [1] came out at 3.56%. Besides, the inhibition at 10 µM in assay [2] came to 10.5%. Besides, in assay [3], the midpoint of the response, the EC50, lay at 4720 nM and the “% increase of ABCA1 at 3 μM” value came to 84.6% @ 3 μM.
For `CO/N=C1\CCCC[C@H]1NC(=O)c1cnc(OCC(F)(F)F)c(-c2ccc(Cl)c(Cl)c2)c1` [Example 8, 5-(3,4-Dichloro-phenyl)-N-{(R)-2-[(E)-methoxyimino]-cyclohexyl}-6-(2,2,2-trifluoro-ethoxy)-nicotinamide] the same measures were 13.1%, 35.2%, 810 nM and 63% @ 3 μM.
Consider `CO/N=C1\CCCC[C@@H]1NC(=O)c1cc(-c2ccc(Cl)cc2)c(OCC(F)(F)F)cn1` [Example 9, 4-(4-Chloro-phenyl)-5-(2,2,2-trifluoro-ethoxy)-pyridine-2-carboxylic acid {(S)-2-[(E)-methoxyimino]-cyclohexyl}-amide], for which the figures for the inhibition at 10 µM in assay [1] and in assay [2] (setting [4]) were 37.6% and 15.9%, respectively. Also, the “% increase of ABCA1 at 3 μM” value in assay [3] is 71.7% @ 3 μM.
In the case of `CO/N=C1\CCCC[C@@H]1NC(=O)c1ccc(OCC(F)(F)F)c(-c2ccc(Cl)cc2)n1` [Example 10, 6-(4-Chloro-phenyl)-5-(2,2,2-trifluoro-ethoxy)-pyridine-2-carboxylic acid {(S)-2-[(E)-methoxyimino]-cyclohexyl}-amide], at 10 µM the inhibition in assay [1] was 19.2%. Further, the inhibition at 10 µM in assay [2] (setting [4]) was determined as 0.74%. In addition, in assay [3], the concentration for a half-maximal effect (EC50) turned out to be 1530 nM and the “% increase of ABCA1 at 3 μM” value is 45.6% @ 3 μM.
Turning to `O=C(NC/C(=N/O)C1CC1)c1cnc(OCC(F)(F)F)c(-c2ccc(Cl)c(Cl)c2)c1` [Example 11, N-(E)-(2-Cyclopropyl-2-hydroxyimino-ethyl)-5-(3,4-dichloro-phenyl)-6-(2,2,2-trifluoro-ethoxy)-nicotinamide], the values for the inhibition at 10 µM in assay [1] and in assay [2] (setting [4]) were 44.3% and 30%, respectively. The “% increase of ABCA1 at 3 μM” value in assay [3] was 55.9% @ 3 μM.
For `CO/N=C(/CNC(=O)c1cnc(OCC(F)(F)F)c(-c2ccc(Cl)c(Cl)c2)c1)C1CC1` [Example 12, N-{2-Cyclopropyl-2-[(E)-methoxyimino]-ethyl}-5-(3,4-dichloro-phenyl)-6-(2,2,2-trifluoro-ethoxy)-nicotinamide] the same measures were 47.7%, 26.8% and 88.4% @ 3 μM.
On the same counts, the results for `CO/N=C(\CNC(=O)c1cnc(OCC(F)(F)F)c(-c2ccc(Cl)cc2)c1)C1CC1` [Example 13, 5-(4-Chloro-phenyl)-N-{2-cyclopropyl-2-[(Z)-methoxyimino]-ethyl}-6-(2,2,2-trifluoro-ethoxy)-nicotinamide] are 1.52%, 48.6% and 66.2% @ 3 μM.
On the same counts, the results for `CO/N=C(/CNC(=O)c1cnc(OCC(F)(F)F)c(-c2ccc(Cl)cc2)c1)C1CC1` [Example 14, 5-(4-Chloro-phenyl)-N-{2-cyclopropyl-2-[(E)-methoxyimino]-ethyl}-6-(2,2,2-trifluoro-ethoxy)-nicotinamide] are 20.9%, 48.2% and 157.2% @ 3 μM.
Regarding `CO/N=C1\CCCC[C@H]1NC(=O)c1cc(-c2ccc(Cl)cc2)c(OCC(F)(F)F)nn1` [Example 16, 5-(4-Chloro-phenyl)-6-(2,2,2-trifluoro-ethoxy)-pyridazine-3-carboxylic acid {(R)-2-[(E)-methoxyimino]-cyclohexyl}-amide], at 10 µM the inhibition in assay [1] was 16.6%. For the same compound, in assay [2] (setting [4]), the inhibition at 10 µM was determined as 25.4%. In assay [3], it took 10000 nM to reach a half-maximal effect (EC50) and the “% increase of ABCA1 at 3 μM” value is 55.3% @ 3 μM.
`CO/N=C1\CCCC[C@@H]1NC(=O)c1cc(-c2ccc(Cl)cc2)c(OCC(F)(F)F)nn1` [Example 17, 5-(4-Chloro-phenyl)-6-(2,2,2-trifluoro-ethoxy)-pyridazine-3-carboxylic acid {(S)-2-[(E)-methoxyimino]-cyclohexyl}-amide] yielded an inhibition at 10 µM in assay [1] of 13.6%. Further, the inhibition at 10 µM in assay [2] (setting [4]) turned out to be 16.6%. Also, in assay [3], the midpoint of the response, the EC50, lay at 2630 nM and the “% increase of ABCA1 at 3 μM” value stood at 76.5% @ 3 μM.

As usually defined, the inhibition is the percentage by which the read-out fell short of the control. As usually defined, the EC50 is the midpoint of the concentration-response curve.
